Data on 3 compounds can be found in US12029738B2, “Antiproliferative compounds and methods of use thereof” (Celgene Corporation, priority 2017, dated 2024).

Structures are written as SMILES. pIC50: −log10 of the molar value.

Experiment [1] relates to NCI-H929. The experiment can be described thus: Cell proliferation assay (CTG, 120 h). In kind it is cell-based. Conditions: Homo sapiens. As for the experimental part:
(§1) Cell Culture Materials: Human multiple myeloma cell lines were purchased from the vendors and cultured at 37° C. with 5% CO2 in the media as indicated in Table 1. Lenalidomide and pomalidomide resistant cell lines were obtained by methods as generally described previously (Lopez-Girona et al Leukemia 2012; 26(11): 2335). All cell lines were kept in log phase, and cell density and viability were monitored by trypan blue exclusion using the Vi-cell XR cell viability analyzer (Beckman Coulter, Brea, CA).
(§2) Preparation of Solutions of Test Article: Compounds were plated into black 384-well plates (Corning Inc.) to a final DMSO volume of 0.1% assuming a maximal volume of 50 μL. A 10-point dose response starting at 10 μM with a 1:3 dilution was printed in duplicate by acoustic dispense using the EDC ATS-100 platform. Alternatively, the 10-point dose response starting at 10 μM with a 1:10 dilution, or starting at 100 nM with a 1:3 dilutions were used.
(§3) Cell Proliferation Assays: The effect of compounds on the proliferation/viability of the hematological cell lines (Table 1), was assessed after 120 h incubation using CTG (Promega), according to manufacturer's instructions. Hematological cell lines were dispensed into compound plates by a Multidrop Combi Reagent Dispenser (Thermo Scientific, Waltham, MA) at a concentration of 0.1×10^6 cells per mL in a 50 μL total volume. At 120 h, 25 μL per well of CTG was dispensed by a Multidrop Combi Reagent Dispenser and adenosine triphosphate (ATP) release by viable cells was measured as relative luminescence units after 30 minutes using the Envision platform.
(§4) Results. […] The MM cell lines selected for this study were lines sensitive and resistant to lenalidomide and/or pomalidomide (Table 1), two agents used in the clinic to treat myeloma patients. Proliferation was assessed using the CellTitre-Glo© assay. Results for cultures incubated with the compounds were normalized to results for control cultures for each cell line. The IC50 for inhibition of cell growth by the compounds was determined for each cell line using ActivityBase software.

Experiment [2] has as its system OPM2. The experiment can be described thus: Cell proliferation assay (CTG, 120 h). Conditions: Homo sapiens, OPM-2. In kind it is cell-based. Here is the method:
as §1, §2, §3, §4

Experiment [3] deals with OPM2-P10 (pomalidomide-resistant). Put plainly: Cell proliferation assay (CTG, 120 h). In kind it is cell-based. Conditions: Homo sapiens, read-out: OPM-2.P10 120 h IC50. As for the experimental part:
as §1, §2, §3, §4

The next experiment relates to MM1-S. Put plainly: Flow cytometry proliferation/apoptosis assay (120 h). Conditions: for pIC50: Homo sapiens, MM1-S, read-out: Antiproliferative Activity (Flow Cytometry) IC50; for induced apoptosis AUC (area under the dose response curve): MM1.S, 10000 = complete induction at all doses, 0 = none. In kind it is cell-based, human. Here is the method: (§5) Methods. […] Twenty MM cell lines (Table 7 and 8) (including the plasma cell leukemia (PCL) cell lines L363, JJN-3, ARH-77, and SKMM-2) were treated in duplicate with escalating concentrations of Compound 2 or pomalidomide, ranging from 0.015 to 100 nM. Using 5 mM stocks, compounds were pre-spotted into the appropriate wells of 96-well plates using a Hewlett-Packard D300 Digital Dispenser. Cells were added to 96-well plates using a Multidrop Combi Reagent Dispenser. After 5 days of treatment, flow cytometric analysis was used to determine the number of cells that were alive, dead, or apoptotic. After 5 days of treatment, cells were incubated with annexin V to stain exposed phosphatidylserine, an apoptotic cell-surface marker, and the vital dye 7-AAD, which is excluded from cells with intact cell membranes, and analyzed by flow cytometry (Attune®, Thermo Fisher). Analysis was then performed to determine the number of live cells (annexin V and 7-AAD double negative staining cells) and the percentage of apoptotic cells (annexin V positive cells) for each condition, relative to the DMSO control treated, was calculated. All described values were normalized to DMSO-only treated cells. All proliferation and apoptosis induction curves were processed and graphed as percent of control using XLFit (IDBS, Alameda, CA) and GraphPad Prism 7.03 (GraphPad Software, La Jolla, CA). The live cell count for every concentration was normalized to the DMSO control (considered as 100%) in Microsoft Excel to generate the proliferation curves. […] Similarly, for apoptosis analysis, the percentage of drug-induced apoptosis was calculated for all doses by combining both “early” (annexin V positive and 7-AAD negative) and “late” apoptosis (annexin V and 7-AAD positive) values and subtracting background values (cell treated with vehicle control DMSO). The AUC values for apoptosis curves were calculated by performing area under curve analysis on GraphPad Prism 7.03. The area under the dose-response curve (AUC) was calculated since it integrates potency and efficacy of the drugs to represent apoptosis into a single parameter. The IC50 values for Compound 2 and pomalidomide in the flow cytometry assays are presented Table 9.
(§6) The apoptosis induction effect of Compound 2 was assessed using flow cytometry after 120 h of treatment and compared with pomalidomide treatment. […] Each data point represents 2 independent experiments with at least two samples in each experiment. (Table 10).
On the technique in general: A flow cytometer gives signals particle by particle.

The test system of experiment [4] is NCI-H929. Described as above. In kind it is cell-based, human. The conditions noted are these: for pIC50: Homo sapiens, read-out: Antiproliferative Activity (Flow Cytometry) IC50; for induced apoptosis AUC (area under the dose response curve): scale 0-10000. As for the experimental part:
as §5, §6

A further experiment has as its system LP-1. The experiment is described as above. In kind it is cell-based, human. The conditions noted are these: for pIC50: Homo sapiens, read-out: Antiproliferative Activity (Flow Cytometry) IC50; for induced apoptosis AUC (area under the dose response curve): scale 0-10000. As for the experimental part: as §5, §6
For the next experiment, the system named is ANBL-6. The experiment is described as above. Conditions: for pIC50: Homo sapiens, read-out: Antiproliferative Activity (Flow Cytometry) IC50; for induced apoptosis AUC (area under the dose response curve): scale 0-10000. In kind it is cell-based, human. As for the experimental part: as §5, §6
The next experiment deals with DF15. Described as above. The conditions noted are these: for pIC50: Homo sapiens, read-out: Antiproliferative Activity (Flow Cytometry) IC50; for induced apoptosis AUC (area under the dose response curve): scale 0-10000. In kind it is cell-based, human. Here is the method:
as §5, §6

In the next experiment the test system is KMS-12-PE. Described as above. In kind it is cell-based, human. Conditions: for pIC50: Homo sapiens, read-out: Antiproliferative Activity (Flow Cytometry) IC50; for induced apoptosis AUC (area under the dose response curve): scale 0-10000. Here is the method:
as §5, §6

Experiment [5] concerns OPM2. The description is as above. In kind it is cell-based, human. The conditions noted are these: for pIC50: Homo sapiens, OPM-2, read-out: Antiproliferative Activity (Flow Cytometry) IC50; for induced apoptosis AUC (area under the dose response curve): scale 0-10000. As for the experimental part: as §5, §6
The subject of experiment [6] is multiple myeloma and plasma cell leukemia cell lines (OPM2.P10, RPMI.8226, L363, JJN-3). Put plainly: Combination with proteasome inhibitor pulse (flow cytometry, 72 h). In kind it is cell-based, human. Conditions: then Compound 2 72 h.
Description: Twenty four hours prior to treatment with a proteasome inhibitor and test compound, an appropriate number of cells were split to a concentration of 0.2×10^6/mL in fresh media to allow for exponential growth. On the day of treatment, compounds were freshly solvated in DMSO. Proteasome inhibitors bortezomib or carfilzomib were diluted and added to pre-warmed culture media at the final working concentrations of 150 nM or 300 nM for bortezomib and 300 nM or 550 nM for carfilzomib. Proteasome inhibitor concentrations were determined based upon clinical Cmax concentrations as well as previous studies in each cell line which determined the duration and concentration of PI required to inhibit a specific amount of β5 proteasome activity. Cells were counted and an appropriate number were placed into media containing proteasome inhibitor and thoroughly mixed. After incubation for 1 h at 37° C., 5% CO2, cells were washed two times with 40 mL of complete media to remove the proteasome inhibitor. […] Plated cells were cultured at 37° C., 5% C02, for the remainder of the experiment, up to 72 h. Every 24 h, proteasome inhibition was monitored by the Cell-Based Proteasome-Glo Assay. Proliferation and apoptosis were measured at 72 h by flow cytometry. Cells were stained with APC Annexin-V and 7-AAD to enumerate the number of viable cells remaining in culture.
An in vitro cell assay was established in order to mimic the clinical pharmacokinetics (PK) and pharmacodynamics (PD) of exposure to proteasome inhibitors bortezomib and carfilzomib.

As to `N#Cc1ccc(N2CCN(Cc3ccc(COc4cccc5c4CN(C4CCC(=O)NC4=O)C5=O)cc3)CC2)c(F)c1` (racemic) [Compound 1, 4-(4-(4-(((2-(2,6-dioxopiperidin-3-yl)-1-oxoisoindolin-4-yl)oxy)methyl)benzyl)piperazin-1-yl)-3-fluorobenzonitrile], the pIC50 with NCI-H929 [1] is more than 9.30; with OPM2 [2], more than 9.30; in [3], 7.72.
As for `Nc1cccc2c1C(=O)N(C1CCC(=O)NC1=O)C2=O` (stereo not drawn) [Pomalidomide, pomalidomide], the pIC50 with MM1-S is 7.47; in the experiment with NCI-H929 [4], 7.20; in the experiment with LP-1 it was 6.76; in the experiment with ANBL-6, 7.22; in the experiment with DF15 it was 7.39; in the experiment on KMS-12-PE, 7.08. The pIC50 with OPM2 [5] was 7.16. In addition, the “induced apoptosis AUC (area under the dose response curve)” value (“induced apoptosis AUC” below) with MM1-S came to 3525; with NCI-H929 [4], 2115; in the experiment on LP-1 it was 174; in the experiment on ANBL-6, 2580; in the experiment on DF15, 3707; in the experiment on KMS-12-PE, 1069. Also, the “induced apoptosis AUC” value with OPM2 [5] is 3298.
As for `N#Cc1ccc(N2CCN(Cc3ccc(COc4cccc5c4CN([C@H]4CCC(=O)NC4=O)C5=O)cc3)CC2)c(F)c1` [Compound 2, (S)-4-(4-(4-(((2-(2,6-dioxopiperidin-3-yl)-1-oxoisoindolin-4-yl)oxy)methyl)benzyl)piperazin-1-yl)-3-fluorobenzonitrile], the pIC50 is 10.40 in the experiment on MM1-S; 10.30 in the experiment on NCI-H929 [4]; 9.85 in the experiment on LP-1; 10.22 with ANBL-6; 10.30 in the experiment with DF15; 10.05 in the experiment with KMS-12-PE. Further, the negative logarithm of the IC50 (pIC50) with OPM2 [5] was 10.30; in the experiment with NCI-H929 [1], 10.15; in the experiment with OPM2 [2], 10.15; in experiment [3], 8.37. The “induced apoptosis AUC” value with MM1-S worked out at 5701; with NCI-H929 [4] it was 6089; with LP-1, 630.7; in the experiment on ANBL-6, 4751; in the experiment on DF15, 6002; in the experiment on KMS-12-PE, 2017. In addition, the “induced apoptosis AUC” value in the experiment with OPM2 [5] was determined as 5620. Also, the “effect in combination with bortezomib” value in [6] (1 h bortezomib pulse, OPM2.P10, RPMI.8226, JJN-3) is recorded as “demonstrated a combination effect”. For the same compound, the “effect in combination with carfilzomib” value in experiment [6] (1 h carfilzomib pulse, 4 cell lines) is “combination effects with Compound 2 were demonstrated in all 4 cell lines”.

In general, pIC50 refers to the IC50 on a negative log10 scale, so that one unit is a factor of ten.
